Reference: article PMC12809313, “New Sulfonate-Semicarbazone Hybrid Molecules: Synthesis, Theoretical Evaluations, Molecular Simulations, and Butyrylcholinesterase Inhibition Activity” (ACS Omega, 2025)
Where “and” joins values, the source holds several entries; their conditions need not be identical. Equal values may be shown once.

Columns and labels:
[1] = target: T1, butyrylcholinesterase (BChE) (Homo sapiens, UniProt P06276); assay: In vitro BChE inhibition (Ellman's technique); format: biochemical; details: Ellman assay, five concentrations, triplicate
Experimental: The semicarbazone derivatives were evaluated for their inhibitory activities against human acetylcholinesterase (AChE) and butyrylcholinesterase (BChE) enzymes using standard in vitro assays. The Ellman’s technique that was tailored to our lab’s needs was used to measure the activity of the cholinesterase enzyme. The test chemicals were first dissolved in DMSO at a concentration of 1 mg/mL to create stock solutions, which were then diluted 10 times with distilled water for use in the inhibition tests. Each compound’s inhibitory effects on the enzymes were evaluated at five different concentrations. Fifty microliters of distilled water, 50 μL of 0.1 M Tris–HCl buffer (pH 8.0), 15 μL of 0.015 M […] (as substrates), 30 μL of 0.06 M DTNB (5,5′-dithiobis(2-nitrobenzoic acid)), and 10 μL of enzyme solution made up the reaction mixture for the AChE and BChE tests. The absorbance of the blank solutions was measured before the substrate was added. The substrate was then added to each well to start the enzymatic reaction. Enzyme activity was kinetically assessed at 408 nm by using a microplate reader. Each inhibition measurement was repeated three times, and average values were taken when measuring the inhibitory potentials of the molecules. The IC50 values, indicating each compound’s inhibitory strength against cholinesterase, were determined by plotting percent activity versus inhibitor concentration.

[2] = target: T1, butyrylcholinesterase (BChE); assay: BChE enzyme kinetics (Lineweaver–Burk plots); format: biochemical; details: for inhibition type: Lineweaver–Burk plots; for Ki: substrate butyrylthiocholine iodide, Lineweaver–Burk, read-out: inhibition constant (K i)
Experimental: The enzymatic activity of BChE was evaluated at various concentrations of the substrate butyrylthiocholine iodide (BTChI) in the presence of fixed concentrations of each inhibitor. The resulting data were analyzed by Lineweaver–Burk double reciprocal plots to determine kinetic parameters such as K m, V max, and the inhibition type (Figure ).
Different concentrations of butyrylthiocholine iodide were used in the presence of three concentrations of each compound. Lineweaver–Burk plots were constructed by plotting the reciprocal of reaction velocity (1/V) against the reciprocal of substrate concentration (1/[S]). Based on these plots, the inhibition types were determined. The inhibition constant (K i) was calculated using the following equation (eq ). 2 slope=Km/Vmax×(1+[I]/Ki)

T1 sequence (P06276 29-602): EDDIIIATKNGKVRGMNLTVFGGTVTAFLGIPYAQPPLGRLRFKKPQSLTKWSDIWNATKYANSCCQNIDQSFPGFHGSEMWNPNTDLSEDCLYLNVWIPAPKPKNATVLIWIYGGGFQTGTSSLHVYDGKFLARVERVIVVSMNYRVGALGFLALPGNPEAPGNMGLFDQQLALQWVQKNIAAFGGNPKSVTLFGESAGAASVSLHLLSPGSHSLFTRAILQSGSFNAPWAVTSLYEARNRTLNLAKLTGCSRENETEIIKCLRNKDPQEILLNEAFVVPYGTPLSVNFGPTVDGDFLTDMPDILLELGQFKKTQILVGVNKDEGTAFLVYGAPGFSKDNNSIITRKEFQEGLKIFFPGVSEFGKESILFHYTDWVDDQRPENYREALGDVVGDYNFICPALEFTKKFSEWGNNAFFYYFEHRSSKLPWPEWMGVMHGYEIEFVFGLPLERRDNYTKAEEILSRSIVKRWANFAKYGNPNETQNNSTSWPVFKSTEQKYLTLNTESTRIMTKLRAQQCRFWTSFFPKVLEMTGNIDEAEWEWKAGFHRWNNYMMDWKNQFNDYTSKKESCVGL

Row | SMILES | IC50 [1] | BChE IC50 [1] | inhibition type [2] | Ki [2] [µM]
1 | NC(=O)N/N=C/c1ccc(OS(=O)(=O)c2ccc(Cl)cc2)cc1 [Compound 3, 4-[(E)-(2-carbamoylhydrazinylidene)methyl]phenyl 4-Chlorobenzene-1-sulfonate] | 141 µM |  |  | 
2 | Cc1ccc(S(=O)(=O)Oc2ccc(/C=N/NC(N)=O)cc2)cc1 [Compound 6, 4-[(E)-(2-Carbamoylhydrazinylidene)methyl]phenyl 4-Methylbenzene-1-sulfonate] | 178 µM |  |  | 
3 | NC(=O)N/N=C/c1ccc(OS(=O)(=O)c2ccc(OC(F)(F)F)cc2)cc1 [Compound 14, 4-[(E)-(2-Carbamoylhydrazinylidene)methyl]phenyl 4-(Trifluoromethoxy)benzene-1-sulfonate] | < 130 µM and 130 µM | stronger inhibition than the reference drug pyridostigmine bromide |  | 
4 | NC(=O)N/N=C/c1ccc(OS(=O)(=O)c2ccccc2OC(F)(F)F)cc1 [Compound 12, 4-[(E)-(2-Carbamoylhydrazinylidene)methyl]phenyl 2-(Trifluoromethoxy)benzene-1-sulfonate] | 61.9 µM and < 130 µM | stronger inhibition than the reference drug pyridostigmine bromide | reversible competitive inhibitors | 11.9 ± 3.31
5 | NC(=O)N/N=C/c1ccc(OS(=O)(=O)c2ccc([N+](=O)[O-])cc2)cc1 [Compound 15, 4-[(E)-(2-Carbamoylhydrazinylidene)methyl]phenyl 4-Nitrobenzene-1-sulfonate] | 347 µM |  |  | 
6 | NC(=O)N/N=C/c1ccc(OS(=O)(=O)c2cccc3ccccc23)cc1 [Compound 17, 4-[(E)-(2-Carbamoylhydrazinylidene)methyl]phenyl Naphthalene-1-sulfonate] | 77 µM and < 130 µM | stronger inhibition than the reference drug pyridostigmine bromide | reversible competitive inhibitors | 9.08 ± 3.51
7 | NC(=O)N/N=C/c1ccc(OS(=O)(=O)c2cccc(C(F)(F)F)c2)cc1 [Compound 9, 4-[(E)-(2-Carbamoylhydrazinylidene)methyl]phenyl-3-(trifluoromethyl)benzene-1-sulfonate] | 147 µM |  |  | 
8 | NC(=O)N/N=C/c1ccc(OS(=O)(=O)c2ccc(F)cc2)cc1 [Compound 2, 4-[(E)-(2-Carbamoylhydrazinylidene)methyl]phenyl 4-Fluorobenzene-1-sulfonate] | 161 µM |  |  | 
9 | NC(=O)N/N=C/c1ccc(OS(=O)(=O)c2ccccc2C(F)(F)F)cc1 [Compound 8, 4-[(E)-(2-Carbamoylhydrazinylidene)methyl]phenyl 2-(Trifluoromethyl)benzene-1-sulfonate] | 172 µM |  |  | 
10 | COc1ccc(S(=O)(=O)Oc2ccc(/C=N/NC(N)=O)cc2)cc1 [Compound 7, 4-[(E)-(2-Carbamoylhydrazinylidene)methyl]phenyl 4-Methoxybenzene-1-sulfonate] | 136 µM |  |  | 
11 | NC(=O)N/N=C/c1ccc(OS(=O)(=O)c2ccc(-c3ccccc3)cc2)cc1 [Compound 16, 4-[(E)-(2-Carbamoylhydrazinylidene)methyl]phenyl [1,1′-Biphenyl]-4-sulfonate] | < 130 µM and 112 µM | stronger inhibition than the reference drug pyridostigmine bromide |  | 
12 | NC(=O)N/N=C/c1ccc(OS(=O)(=O)c2cccc(OC(F)(F)F)c2)cc1 [Compound 13, 4-[(E)-(2-Carbamoylhydrazinylidene)methyl]phenyl 3-(Trifluoromethoxy)benzene-1-sulfonate] | < 130 µM and 116 µM | stronger inhibition than the reference drug pyridostigmine bromide |  | 
13 | NC(=O)N/N=C/c1ccc(OS(=O)(=O)c2ccccc2)cc1 [Compound 1, 4-[(E)-(2-Carbamoylhydrazinylidene)methyl]phenyl Benzenesulfonate] | 139 µM |  |  | 
14 | NC(=O)N/N=C/c1ccc(OS(=O)(=O)c2ccc(I)cc2)cc1 [Compound 5, 4-[(E)-(2-Carbamoylhydrazinylidene)methyl]phenyl 4-Iodobenzene-1-sulfonate] | 173 µM |  |  | 
15 | NC(=O)N/N=C/c1ccc(OS(=O)(=O)c2ccc3ccccc3c2)cc1 [Compound 18, 4-[(E)-(2-Carbamoylhydrazinylidene)methyl]phenyl Naphthalene-2-sulfonate] | 93.7 µM and < 130 µM | stronger inhibition than the reference drug pyridostigmine bromide | reversible competitive inhibitors | 5.49 ± 0.33
16 | NC(=O)N/N=C/c1ccc(OS(=O)(=O)c2cc(C(F)(F)F)cc(C(F)(F)F)c2)cc1 [Compound 11, 4-[(E)-(2-Carbamoylhydrazinylidene)methyl]phenyl 3,5-Bis(trifluoromethyl)benzene-1-sulfonate] | < 130 µM and 114 µM | stronger inhibition than the reference drug pyridostigmine bromide |  | 
17 | NC(=O)N/N=C/c1ccc(OS(=O)(=O)c2ccc(C(F)(F)F)cc2)cc1 [Compound 10, 4-[(E)-(2-Carbamoylhydrazinylidene)methyl]phenyl-4-(trifluoromethyl)benzene-1-sulfonate] | 139 µM |  |  | 
18 | NC(=O)N/N=C/c1ccc(OS(=O)(=O)c2ccc(Br)cc2)cc1 [Compound 4, 4-[(E)-(2-Carbamoylhydrazinylidene)methyl]phenyl 4-Bromobenzene-1-sulfonate] | 177 µM |  |  | 
